# Measured values reported in PMC10579241, “Impact of trifluoromethyl and sulfonyl groups on the biological activity of novel aryl-urea derivatives: synthesis, in-vitro, in-silico and SAR studies” (Scientific Reports, 2023).
# Like-named read-outs stand apart in the source and are kept apart here. Marks after values point to notes of the source that are not given here.
# Assays:
# [1] = system: hepatocellular carcinoma cell line (HePG2); experiment: cells; format: cell-based; details: Homo sapiens, 48 h
# skin cancer (A431) = experiment: cells; format: cell-based; details: Homo sapiens, A-431, 100 μg/mL, 48 h
# PACA2 = experiment: DNA damage, comet assay, PACA2; format: cell-based, human
# Bacillus mycoides [2] = experiment: microbe, parasite or virus in culture; format: cell-based
# PALB2 = experiment: qRT-PCR, PALB2 in PACA2 cells; format: cell-based, human; details: versus negative untreated sample
# HCT116 = experiment: DNA damage, comet assay, HCT116; format: cell-based, human
# [3] = system: human lung carcinoma (A549); experiment: cells; format: cell-based
# Bacillus mycoides [4] = experiment: microbe, parasite or virus in culture; format: cell-based; remark: listed apart in the source
# Escherichia coli [5] = experiment: Agar well diffusion, E. coli; format: cell-based; details: Escherichia coli, read-out: Inhibition zones diameter
# colon cancer (HCT116) = experiment: cells; format: cell-based; details: Homo sapiens
# Candida albicans [6] = experiment: MIC by serial dilution (agar wells), C. albicans; format: cell-based
# TP53 = experiment: qRT-PCR, TP53 in HCT116 cells; format: cell-based, human; details: versus negative samples
# Method: RNA was extracted from pancreas, prostate, lung and liver cell lines using a total RNA purification kit (Qiagen, Hilden, Germany) according to the manufacturer's instructions. An aliquot of RNA was diluted in RNase-free water to estimate RNA quantity. Aliquots were used immediately for reverse transcription (RT). cDNA synthesis was performed on extracted RNA, which was treated with DNase (Invitrogen, Germany) to remove any possible DNA contamination. The DNase-treated RNA was reverse transcribed into first-strand cDNA using the RevertAid First Strand cDNA Synthesis kit (Fermantas) according to the manufacturer's instructions. Determination of the pancreas, prostate, lung and liver cell line cDNA copy number was carried out using StepOne™ Real-Time PCR System from Applied Biosystems (Thermo Fisher Scientific, Waltham, MA USA). Gene expressions were detected by real-time PCR, which was performed using the Rotor-Gene Q system (Qiagen Company). A 25 µL reaction mixture consisted of 12.5 µL SYBR® Premix Ex TaqTM (TaKaRa, Biotech. Co. Ltd.), 0.5 µL of each primer (10 PMole) (Table 1), 1 µL cDNA (50 ng) and 10.5 µL RNase free water. The optimum amplification conditions were chosen empirically according to each tested gene. Generally, the amplification conditions include initial incubation (95.0 °C for 3 min), then 40 cycles of amplification with denaturation (95.0 °C for 15 s), annealing (55.0 °C for 30 s) and extension (72.0 °C for 30 s) steps then 71 cycles which started at 60.0 °C and then increased about 0.5 °C every 10 s up to 95.0 °C. Mean cycle threshold (Ct) values of triplicate samples are used for analysis. The Ct value indicates the fractional cycle number at which the amount of amplified target reaches a fixed threshold. Data from real-time PCR were analyzed using 2^−∆∆Ct method[38]–[40]. Data were represented as the fold change in target gene expression normalized to a House-Keeping gene (HKG) and relative to the control. β-actin was used as a HKG to normalize input RNA amount, RNA quality and reverse transcription efficiency.
# BRCA2 = experiment: qRT-PCR, BRCA2 in PC3 cells; format: cell-based, human; details: versus negative samples
# in vitro = format: cell-based; details: human, BJ1 normal skin fibroblast cells, 100 μg/mL
# [7] = system: normal skin fibroblast cell line (BJ1); experiment: cells; format: cell-based; details: Homo sapiens, Skin fibroblast, MTT, 48 h
# [8] = system: pancreatic cancer cell line (PACA2); experiment: cells; format: cell-based; details: Homo sapiens, PaCa-2, 48 h
# FASN = experiment: qRT-PCR, FASN in HCT116 cells; format: cell-based, human; details: versus negative samples
# CDKN2A = experiment: qRT-PCR, CDKN2A in PACA2 cells; format: cell-based, human; details: versus negative untreated sample
# Escherichia coli [9] = experiment: MIC by serial dilution (agar wells), E. coli; format: cell-based
# Candida albicans [10] = experiment: Agar well diffusion, C. albicans; format: cell-based
# [11] = read-out: Minimum inhibition concentration (MIC)
# [12] = 0.00488 mg/mL, 150 µL in DMSO, 15 mm agar well
# [13] = 0.00975 mg/mL, 150 µL in DMSO, 15 mm agar well
# [14] = 0.0195 mg/mL, 150 µL in DMSO, 15 mm agar well
# [15] = 0.0391 mg/mL, 150 µL in DMSO, 15 mm agar well
# [16] = 0.0781 mg/mL, 150 µL in DMSO, 15 mm agar well
# [17] = 0.1563 mg/mL, 150 µL in DMSO, 15 mm agar well
# [18] = 0.3125 mg/mL, 150 µL in DMSO, 15 mm agar well
# [19] = 0.625 mg/mL, 150 µL in DMSO, 15 mm agar well
# [20] = 1.25 mg/mL, 150 µL in DMSO, 15 mm agar well
# [21] = 2.50 mg/mL, 150 µL in DMSO, 15 mm agar well
# [22] = 5.00 mg/mL, 150 µL in DMSO, 15 mm agar well
# [23] = 10.0 mg/mL, 150 µL in DMSO, 15 mm agar well
smiles,measurement,setting,value
"Cc1ccc(S(=O)(=O)NC(=O)Nc2ccc(C(F)(F)F)cc2)cc1 [Compound 7, 4-Methyl-N-[(4-{trifluoromethyl}phenyl)carbamoyl]benzenesulfonamide]",mortality at 100 µg/mL,[1]; 100 μg/mL,100%
same,IC50,[1]; MTT,97.4 ± 1.11 µM
same,mortality at 100 µg/mL,skin cancer (A431),55.4 ± 1.25%
same,DNA damaged cells % (mean ± SEM),PACA2,23.52 ± 0.65^a %
same,"Class 0 (no tail), number of cells",PACA2; of 400 cells analyzed,306
same,"Class 1 (tail length < diameter of nucleus), number of cells",PACA2; of 400 cells analyzed,35
same,"Class 2 (tail length between 1 and 2 × the diameter of nucleus), number of cells",PACA2; of 400 cells analyzed,28
same,"Class 3 (tail length > 2 × the diameter of nucleus), number of cells",PACA2; of 400 cells analyzed,31
same,"No. of cells, Comets",PACA2; of 400 cells analyzed,94
same,zone of inhibition at 4.88 µg/mL,Bacillus mycoides [2]; read-out: Inhibition zone,0 mm
same,zone of inhibition at 9.75 µg/mL,Bacillus mycoides [2]; read-out: Inhibition zone,15 mm
same,zone of inhibition at 19.5 µg/mL,Bacillus mycoides [2]; read-out: Inhibition zone,15 mm
same,zone of inhibition at 39.1 µg/mL,Bacillus mycoides [2]; read-out: Inhibition zone,16 mm
same,zone of inhibition at 78.1 µg/mL,Bacillus mycoides [2]; read-out: Inhibition zone,16 mm
same,zone of inhibition at 156.3 µg/mL,Bacillus mycoides [2]; read-out: Inhibition zone,18 mm
same,zone of inhibition at 312.5 µg/mL,Bacillus mycoides [2]; read-out: Inhibition zone,20 mm
same,zone of inhibition at 625 µg/mL,Bacillus mycoides [2]; read-out: Inhibition zone,24 mm
same,zone of inhibition at 1250 µg/mL,Bacillus mycoides [2]; read-out: Inhibition zone,26 mm
same,zone of inhibition at 2500 µg/mL,Bacillus mycoides [2]; read-out: Inhibition zone,27 mm
same,zone of inhibition at 5000 µg/mL,Bacillus mycoides [2]; read-out: Inhibition zone,28 mm
same,zone of inhibition at 10000 µg/mL,Bacillus mycoides [2]; read-out: Inhibition zone,29 mm
same,MIC,Bacillus mycoides [2]; [11],9.75 µg/mL
same,PALB2 gene expression level,PALB2,significantly reduced
same,DNA damaged cells % (mean ± SEM),HCT116,25.56 ± 0.66^a %
same,"Class 0 (no tail), number of cells",HCT116; of 400 cells analyzed,298
same,"Class 1 (tail length < diameter of nucleus), number of cells",HCT116; of 400 cells analyzed,29
same,"Class 2 (tail length between 1 and 2 × the diameter of nucleus), number of cells",HCT116; of 400 cells analyzed,38
same,"Class 3 (tail length > 2 × the diameter of nucleus), number of cells",HCT116; of 400 cells analyzed,35
same,"No. of cells, Comets",HCT116; of 400 cells analyzed,102
same,mortality at 100 µg/mL,"[3]; A549, 48 h, 100 μg/mL",100%
same,IC50,"[3]; MTT, 48 h",86.5 ± 1.4 µM
same,Inhibition zones diameter,"Bacillus mycoides [4]; B. mycoides, 200 μL of 10 mg/mL in DMSO in 15 mm holes, overnight 37 °C",36 ± 1.25 mm
same,zone of inhibition at 10000 µg/mL,"Bacillus mycoides [4]; Bacillus mycoides, read-out: Inhibition zones diameter",36 mm
same,zone of inhibition at 10000 µg/mL,Escherichia coli [5],30 ± 0.74 mm
same,mortality at 100 µg/mL,"colon cancer (HCT116); HCT-116, 48 h, 100 μg/mL",100%
same,IC50,"colon cancer (HCT116); HCT-116, MTT, 48 h",93.5 ± 1.4 µM
same,zone of inhibition at 4.88 µg/mL,Candida albicans [6]; [12],16 mm
same,zone of inhibition at 9.75 µg/mL,Candida albicans [6]; [13],17 mm
same,zone of inhibition at 19.5 µg/mL,Candida albicans [6]; [14],17 mm
same,zone of inhibition at 39.1 µg/mL,Candida albicans [6]; [15],17 mm
same,zone of inhibition at 78.1 µg/mL,Candida albicans [6]; [16],17 mm
same,zone of inhibition at 156.3 µg/mL,Candida albicans [6]; [17],18 mm
same,zone of inhibition at 312.5 µg/mL,Candida albicans [6]; [18],19 mm
same,zone of inhibition at 625 µg/mL,Candida albicans [6]; [19],22 mm
same,zone of inhibition at 1250 µg/mL,Candida albicans [6]; [20],25 mm
same,zone of inhibition at 2500 µg/mL,Candida albicans [6]; [21],27 mm
same,zone of inhibition at 5000 µg/mL,Candida albicans [6]; [22],28 mm
same,zone of inhibition at 10000 µg/mL,Candida albicans [6]; [23],29 mm
same,MIC,Candida albicans [6]; [11],4.88 µg/mL
same,TP53 gene expression level,TP53,suppression
same,BRCA2 gene expression level,BRCA2,decreased significantly
same,"mortality at 48 h, 100 µg/mL",in vitro,12.3 ± 1.12%
same,IC50,[7],48.8 ± 0.26 µM
same,mortality at 100 µg/mL,[8]; 100 μg/mL,100%
same,IC50,[8]; MTT,44.4 ± 0.57 µM
same,FASN gene expression level,FASN,suppression
same,CDKN2A gene expression level,CDKN2A,significantly reduced
same,zone of inhibition at 4.88 µg/mL,Escherichia coli [9]; [12],15 mm
same,zone of inhibition at 9.75 µg/mL,Escherichia coli [9]; [13],16 mm
same,zone of inhibition at 19.5 µg/mL,Escherichia coli [9]; [14],17 mm
same,zone of inhibition at 39.1 µg/mL,Escherichia coli [9]; [15],18 mm
same,zone of inhibition at 78.1 µg/mL,Escherichia coli [9]; [16],19 mm
same,zone of inhibition at 156.3 µg/mL,Escherichia coli [9]; [17],20 mm
same,zone of inhibition at 312.5 µg/mL,Escherichia coli [9]; [18],22 mm
same,zone of inhibition at 625 µg/mL,Escherichia coli [9]; [19],23 mm
same,zone of inhibition at 1250 µg/mL,Escherichia coli [9]; [20],25 mm
same,zone of inhibition at 2500 µg/mL,Escherichia coli [9]; [21],26 mm
same,zone of inhibition at 5000 µg/mL,Escherichia coli [9]; [22],27 mm
same,zone of inhibition at 10000 µg/mL,Escherichia coli [9]; [23],28 mm
same,MIC,Escherichia coli [9]; [11],4.88 µg/mL
same,Inhibition zones diameter,"Candida albicans [10]; C. albicans, 200 μL of 10 mg/mL in DMSO in 15 mm holes, overnight 37 °C",37 ± 1.20 mm
same,zone of inhibition at 10000 µg/mL,"Candida albicans [10]; Candida albicans, read-out: Inhibition zones diameter",37 mm
